From patent US20090054403A1, “Treatment of Post-Traumatic Stress Disorder” (priority 2007, published 2009)

System: tissue norepinephrine and dopamine levels
Experiment: Tissue catecholamines in beagle dogs, 10, 30, 60 mg/kg/day for 4.5 days
Format: in vivo
Method: This study was performed to determine the dopamine and norepinephrine concentrations in kidney medulla and kidney cortex from dogs dosed with nepicastat. Adult male beagle dogs were randomly assigned to four groups of 8 dogs per group and dosed by oral administration with nepicastat. Nepicastat was delivered in doses of 5, 15 and 30 mg/kg placed in single capsules. Vehicle was an empty capsule. Each dog received 2 doses daily, morning and afternoon (8-10 hours apart) for four days. On the fifth day, each dog received a single dose in the morning and the dogs were euthanized six hours after the last dose. Samples of kidney medulla and kidney cortex were rapidly harvested, weighed, placed in cold 0.4 M perchloric acid, frozen in liquid nitrogen and stored at −70° C.
To quantitate concentrations of norepinephrine (NE) and dopamine (D), each tissue was homogenized by brief sonication in 0.4 M perchloric acid. After sonication, the homogenates were centrifuged at 13,000 rpm in a microfuge for 30 minutes at 4° C. An aliquot of each supernatant was removed and spiked with 3,4-dihydroxybenzylamine (DHBA) as internal standard. The extract from each sample was subjected to HPLC separation using electrochemical detection. The method has a quantitation limit of 2.0 ng/mL and a linear range of 2.0 ng/mL to 400 ng/mL for each analyte.
Nepicastat was weighed and put into capsules (size 13—Torpac; East Hanover, N.J.) to yield doses of 5, 15, and 30 mg/kg per capsule (given b.i.d. to yield doses of 10, 30 and 60 mg/kg/day). The initial dog weight was used to determine the dose for each animal. Dogs receiving 0 mg/kg/day received empty capsules (placebo). All doses of nepicastat were administered as free base equivalents.
Thirty-two male beagle dogs, weighing 10-12 kg, were randomly assigned to one of the following 4 treatment groups (n=8 per group): nepicastat at 0 mg/kg/day (placebo), 10 mg/kg/day (5 mg/kg b.i.d.), 30 mg/kg (15 mg/kg b.i.d.), or 60 mg/kg/day (30 mg/kg b.i.d.). Dog numbers 1-16 were assigned as dose group A and dog numbers 17-32 as dose group B. The terminal surgery for tissue harvest was performed over 2 days with 16 animals studied per day. Two or 3 days before the first compound administration each dog was weighed and skin regions overlying both cephalic, saphenous and jugular veins were shaved. Dosing consisted of oral administration of one capsule with the second given 8-10 hr later. Dogs were dosed as scheduled on days 1-3. On day 4, prior to the AM dose, 3 ml of blood were obtained from a jugular vein for determination of baseline plasma compound levels. The dog was then administered the AM dose, and at 1, 2, 4 and 8 hr following the dose additional 3 ml blood samples were collected for determination of plasma compound levels. Blood samples were put into tubes containing heparin, centrifuged at 4° C. and stored at −20° C. until analysis. The PM dose was then administered as scheduled. The AM dose was administered as scheduled on the days of surgery. Approximately 6 hr after the AM dose, a final 3 ml blood sample was taken from the jugular vein for determination of plasma compound levels. The dog was then anesthetized with pentobarbital Na (˜40 mg/kg), given iv in a cephalic or saphenous vein, and delivered to the necropsy room where an additional dose of pentobarbital Na was given (˜80 mg/kg, iv). The left ventricle, renal artery, kidney, renal medulla, renal cortex and cerebral cortex were then rapidly harvested, weighed, put into 2 ml iced 0.4M perchloric acid, frozen in liquid nitrogen and stored at −70° C. until analysis for catecholamines by HPLC using electrochemical detection. All tissue samples were divided into 2 portions, the second of which were immediately frozen in liquid nitrogen and stored at −70° C. for determination of tissue compound levels. A third transmural sample taken from the left ventricle was immediately frozen in liquid nitrogen and stored at −70° C. for use in receptor binding studies. […]

[1] = 60 mg/kg/day, marginal (0.05<p<0.10)

Cl.NCc1c[nH]c(=S)n1[C@H]1CCc2c(F)cc(F)cc2C1 [nepicastat, (S)-5-Aminomethyl-1-(5,7-difluoro-1,2,3,4-tetrahydronaphth-2-yl)-2,3-dihydro-2-thioxo-1H-imidazole hydrochloride]
decrease in norepinephrine, left ventricle (10 mg/kg/day): 85% | decrease in norepinephrine, renal artery (10 mg/kg/day): 86% | decrease in norepinephrine, renal cortex (10 mg/kg/day): 86% | decrease in norepinephrine, renal medulla (10 mg/kg/day): 72% | increase in dopamine, cerebral cortex (10 mg/kg/day): 632% | increase in dopamine, renal artery (10 mg/kg/day): 180% | increase in dopamine, renal cortex (10 mg/kg/day): 156% | increase in dopamine/norepinephrine ratio, cerebral cortex (10 mg/kg/day): 531% | increase in dopamine/norepinephrine ratio, left ventricle (10 mg/kg/day): 852% | increase in dopamine/norepinephrine ratio, renal artery (10 mg/kg/day): 1711% | increase in dopamine/norepinephrine ratio, renal cortex (10 mg/kg/day): 1653% | increase in dopamine/norepinephrine ratio, renal medulla (10 mg/kg/day): 555% | increase in dopamine, renal medulla (10 mg/kg/day, marginal (0.05<p<0.10)): 150% | decrease in norepinephrine, left ventricle (30 mg/kg/day): 58% | decrease in norepinephrine, renal artery (30 mg/kg/day): 81% | decrease in norepinephrine, renal cortex (30 mg/kg/day): 66% | increase in dopamine, renal artery (30 mg/kg/day): 273% | increase in dopamine, renal cortex (30 mg/kg/day): 502% | increase in dopamine, renal medulla (30 mg/kg/day): 522% | increase in dopamine/norepinephrine ratio, cerebral cortex (30 mg/kg/day): 86% | increase in dopamine/norepinephrine ratio, left ventricle (30 mg/kg/day): 279% | increase in dopamine/norepinephrine ratio, renal artery (30 mg/kg/day): 1767% | increase in dopamine/norepinephrine ratio, renal cortex (30 mg/kg/day): 1440% | increase in dopamine/norepinephrine ratio, renal medulla (30 mg/kg/day): 636% | reduction in norepinephrine, cerebral cortex (30 mg/kg/day): 63% | increase in dopamine, cerebral cortex (30 mg/kg/day, marginal (0.05<p<0.10)): 174% | decrease in norepinephrine, left ventricle (60 mg/kg/day): 79% | decrease in norepinephrine, renal artery (60 mg/kg/day): 85% | decrease in norepinephrine, renal cortex (60 mg/kg/day): 85% | increase in dopamine, cerebral cortex (60 mg/kg/day): 411% | increase in dopamine, renal artery (60 mg/kg/day): 268% | increase in dopamine, renal cortex (60 mg/kg/day): 208% | increase in dopamine/norepinephrine ratio, cerebral cortex (60 mg/kg/day): 612% | increase in dopamine/norepinephrine ratio, left ventricle (60 mg/kg/day): 607% | increase in dopamine/norepinephrine ratio, renal artery (60 mg/kg/day): 1944% | increase in dopamine/norepinephrine ratio, renal cortex (60 mg/kg/day): 1693% | increase in dopamine/norepinephrine ratio, renal medulla (60 mg/kg/day): 677% | decrease in norepinephrine, renal medulla [1]: 69% | increase in dopamine, renal medulla [1]: 156% | dopamine levels, left ventricle (10, 30 and 60 mg/kg/day): No significant changes | norepinephrine levels, cerebral cortex (10 and 60 mg/kg/day): not significantly (p>0.01) affected
